The values that follow come from ChEMBL document CHEMBL1201862, “PubChem BioAssay data set” (2004).

Test systems include SK-MEL-5; OVCAR-8; ACHN; SR; 786-0; SK-MEL-28; EKVX; COLO 205; SN12C; MOLT-4; NCI-H226; SW-620; HOP-92; UACC-62; SF-295; Hs-578T; RXF 393; CAKI-1; LOX IMVI; HL-60.
What all share (assay): inhibition of tumour cell growth, NCI panel, 48 h

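Briefly, cells in 96-well plates were exposed to five compound concentrations for 48 h, and endpoints were estimated by linear interpolation. GI50 marks 50% less growth.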 Active and inactive are the calls of the source. Cut-off read from the data, not from the text of the source: active = GI50 up to about 1.1 µM and inactive = higher.

`C/C(=N\Nc1nc2ccccc2s1)c1cnccn1`: the GI50 in the experiment with SK-MEL-5 is 2.57 µM (inactive); in the experiment on OVCAR-8 it was 1.7 µM (inactive); in the experiment with ACHN, 0.397 µM (active); with SR it was 0.652 µM (active); in the experiment with 786-0 it was 2.13 µM (inactive); in the experiment with SK-MEL-28, 9.66 µM (inactive). The GI50 in the experiment on EKVX is 0.146 µM (active); in the experiment with COLO 205, 0.344 µM (active); in the experiment with SN12C, 1.08 µM (active); with MOLT-4, 0.461 µM (active); in the experiment on NCI-H226, 0.247 µM (active); in the experiment with SW-620 it was 0.505 µM (active). Also, the GI50 in the experiment on HOP-92 was 1.51 µM (inactive); in the experiment on UACC-62, 3.88 µM (inactive); in the experiment with SF-295 it was 2.76 µM (inactive); in the experiment with Hs-578T it was 2.33 µM (inactive); in the experiment with RXF 393, 12.7 µM (inactive); in the experiment on CAKI-1 it was 0.256 µM (active).

As for `CCO/C(Cc1ccc(Cl)cc1)=N/NC(N)=S`, the GI50 with SK-MEL-5 is 84.5 µM (inactive); with OVCAR-8 it was > 100 µM (inactive); with ACHN it was > 100 µM (inactive); with SR it was > 100 µM (inactive); with 786-0, > 100 µM (inactive); with SK-MEL-28 it was > 100 µM (inactive). Moreover, the GI50 in the experiment on EKVX, in the experiment with LOX IMVI, with COLO 205, in the experiment with SN12C, in the experiment on MOLT-4 and in the experiment with NCI-H226 was > 100 µM (inactive) throughout. For the same compound, the GI50 in the experiment on SW-620, in the experiment on HOP-92, with UACC-62, in the experiment with SF-295, with Hs-578T and in the experiment on CAKI-1 was > 100 µM (inactive) throughout.

Consider `CC(=O)NNc1nc(C)c(C(=O)/C=C/C=C/c2ccccc2)s1`, for which the GI50 is > 100 µM (inactive) in the experiment with SK-MEL-5; > 100 µM (inactive) in the experiment with OVCAR-8; > 100 µM (inactive) in the experiment with ACHN; 80.9 µM (inactive) in the experiment with SR; 62.7 µM (inactive) in the experiment on 786-0; > 100 µM (inactive) in the experiment with SK-MEL-28. Also, the GI50 is 24.2 µM (inactive) in the experiment on EKVX; > 100 µM (inactive) in the experiment with LOX IMVI; > 100 µM (inactive) with COLO 205; > 100 µM (inactive) in the experiment on SN12C; 56.1 µM (inactive) in the experiment with MOLT-4; 44.4 µM (inactive) with HL-60. For the same compound, the GI50 in the experiment on NCI-H226, in the experiment with SW-620, in the experiment with HOP-92, in the experiment on UACC-62, with SF-295 and in the experiment on Hs-578T was > 100 µM (inactive) in each case. In the experiment with CAKI-1, the GI50 was > 100 µM (inactive).

For the compound `CC(C)CCC[C@@H](C)C1CCC2[C@@H]3CCC4C[C@@H](NS(C)(=O)=O)CC[C@]4(C)C3CC[C@@]21C` (stereo partly drawn), the GI50 in the experiment on SK-MEL-5, in the experiment with OVCAR-8, in the experiment on SR, in the experiment on 786-0, with SK-MEL-28 and in the experiment with EKVX was > 100 µM (inactive) in each case. Moreover, the GI50 with LOX IMVI, in the experiment on COLO 205, with SN12C, in the experiment with MOLT-4, in the experiment on HL-60 and with NCI-H226 was > 100 µM (inactive) each time. The GI50 with SW-620, with UACC-62, with SF-295, with Hs-578T, with RXF 393 and in the experiment with CAKI-1 was > 100 µM (inactive) in each case.

For the compound `Oc1nc(S)nc2nc3c4cccnc4c4ccccc4c3nc12`, the GI50 with SK-MEL-5 is > 100 µM (inactive); in the experiment on OVCAR-8 it was > 100 µM (inactive); in the experiment with ACHN, > 100 µM (inactive); in the experiment with SR it was 50.4 µM (inactive); in the experiment with 786-0, > 100 µM (inactive); with SK-MEL-28, 77.1 µM (inactive). Also, the GI50 in the experiment on EKVX is > 100 µM (inactive); in the experiment with COLO 205, > 100 µM (inactive); with SN12C it was > 100 µM (inactive); with MOLT-4 it was > 100 µM (inactive); in the experiment on HL-60 it was 30.9 µM (inactive); in the experiment on SW-620, > 100 µM (inactive). The GI50 is > 100 µM (inactive) in the experiment with HOP-92; > 100 µM (inactive) in the experiment with UACC-62; > 100 µM (inactive) in the experiment with SF-295; > 100 µM (inactive) with Hs-578T; 49.8 µM (inactive) in the experiment with RXF 393; > 100 µM (inactive) in the experiment with CAKI-1.

For `Oc1ccccc1-n1nc2ccc3nonc3c2n1`, the GI50 in the experiment with SK-MEL-5, with OVCAR-8, with ACHN, in the experiment on SR, with 786-0 and in the experiment with SK-MEL-28 was > 100 µM (inactive) throughout. Also, the GI50 with EKVX is 48.1 µM (inactive); in the experiment on LOX IMVI, > 100 µM (inactive); with COLO 205 it was > 100 µM (inactive); in the experiment on SN12C, > 100 µM (inactive); in the experiment with MOLT-4, > 100 µM (inactive); in the experiment on HL-60, > 100 µM (inactive). Also, the GI50 with NCI-H226, in the experiment with SW-620, in the experiment with HOP-92, in the experiment with UACC-62, in the experiment on SF-295 and with Hs-578T was > 100 µM (inactive) throughout. Moreover, in the experiment with CAKI-1, the GI50 was > 100 µM (inactive).

In the case of `CCCNC(=O)CCC(C)[C@H]1CCC2C3C(C[C@H](OC(C)=O)[C@@]21C)[C@@]1(C)CCC2(C[C@H]1C[C@H]3OC(C)=O)OOC1(CCCCC1)OO2` (stereo partly drawn), the GI50 is 2.46 µM (inactive) in the experiment with SK-MEL-5; 1.42 µM (inactive) in the experiment on OVCAR-8; 1.24 µM (inactive) in the experiment on ACHN; 1.32 µM (inactive) with SR; 2.31 µM (inactive) in the experiment on 786-0; 55.5 µM (inactive) in the experiment with SK-MEL-28. In addition, the GI50 was 1.58 µM (inactive) in the experiment with EKVX; 1.84 µM (inactive) with LOX IMVI; 1.75 µM (inactive) in the experiment on COLO 205; 3.01 µM (inactive) in the experiment on SN12C; 1.67 µM (inactive) with MOLT-4; 1.51 µM (inactive) with HL-60. Also, the GI50 in the experiment on NCI-H226 was 3.84 µM (inactive); in the experiment with SW-620, 4.58 µM (inactive); in the experiment with UACC-62, 2.01 µM (inactive); with SF-295 it was 3.79 µM (inactive); with Hs-578T it was 7.33 µM (inactive); in the experiment with RXF 393, 3.24 µM (inactive). Moreover, in the experiment on CAKI-1, the GI50 was 0.367 µM (active).

For the compound `CC(C)CC[C@H](O)[C@@H](C)[C@H]1[C@@H](OC2OC(C)C(O)C(O)C2O)C[C@H]2[C@@H]3CC=C4C[C@@H](O)CC[C@]4(C)[C@H]3[C@@H](O)C[C@]12C` (stereo partly drawn), the GI50 in the experiment with SK-MEL-5 is 3.35 µM (inactive); with OVCAR-8 it was > 100 µM (inactive); in the experiment on ACHN, > 27.7 µM (inactive); in the experiment on SR it was 0.143 µM (active); with 786-0, 0.084 µM (active); in the experiment with SK-MEL-28, 0.506 µM (active). For the same compound, the GI50 in the experiment with EKVX was 11.4 µM (inactive); with LOX IMVI it was 0.889 µM (active); in the experiment with COLO 205 it was 1.8 µM (inactive); in the experiment on SN12C it was > 100 µM (inactive); in the experiment on MOLT-4, 0.0904 µM (active); with HL-60, 0.098 µM (active). Besides, the GI50 with SW-620 was 0.533 µM (active); in the experiment on HOP-92, 0.312 µM (active); in the experiment with UACC-62 it was 0.538 µM (active); in the experiment with SF-295, 0.0402 µM (active); with Hs-578T, 0.121 µM (active); with RXF 393, 0.124 µM (active). Moreover, the GI50 in the experiment with CAKI-1 was 2.58 µM (inactive).
